Values quoted from earlier work, collected in patent publication US5900414A, “Methods for administering integrin receptor antagonists” (Merck & Co., Inc., priority 1997, dated 1999).
Values belong to the molecule of their own block, whether it stands above or below them. Positions of bridges follow the written chain, without caps; N, C: chain ends. Non-standard residues stand in square brackets, D forms with d. Residues, ends and D or L forms follow the SMILES beside them. hArg = N=C(N)NCCCC[C@H](N)C(=O)O; Mpa = O=C(O)CCS

Key:
[1] = prodrug

SMILES: N=C(N)NCCCC[C@@H]1NC(=O)CCSSC[C@@H](C(N)=O)NC(=O)[C@@H]2CCCN2C(=O)[C@H](Cc2c[nH]c3ccccc23)NC(=O)[C@H](CC(=O)O)NC(=O)CNC1=O [Integrilin] ([Mpa][hArg]GDWPC-NH2; disulfide 1-7)
effect on ligand binding to αv β3 (αv β3): very little effect
ligand binding to GPIIa/IIIa (GPIIa/IIIa): inhibits ligand binding

SMILES: N=C(N)c1ccc(C(=O)N[C@@H](Cc2ccc(O)cc2)C(=O)N2CCC(OCC(=O)O)CC2)cc1 [Ro 44-9883]
selectivity for GPIIb/IIIa (GPIIb/IIIa): selective for GPIIb/IIIa

SMILES: CCCCS(=O)(=O)N[C@@H](Cc1ccc(OCCCCC2CCNCC2)cc1)C(=O)O [MK-383]
selectivity for GPIIb/IIIa (GPIIb/IIIa): selective for GPIIb/IIIa

oral bioavailability [1]: high oral bioavailability
SMILES: C#C[C@H](CC(=O)OCC)NC(=O)CCC(=O)Nc1ccc(C(=N)N)cc1 [SC54684]
